Measurements reported in patent US12023319B2, “Carboxylic acid aromatic amides” (priority 2016, dated 2024).

Target: T1, human Bradykinin B1 receptor (Homo sapiens, UniProt P46663)
T1 construct: host or cells: CHO-K1
T1 sequence (P46663 1-353): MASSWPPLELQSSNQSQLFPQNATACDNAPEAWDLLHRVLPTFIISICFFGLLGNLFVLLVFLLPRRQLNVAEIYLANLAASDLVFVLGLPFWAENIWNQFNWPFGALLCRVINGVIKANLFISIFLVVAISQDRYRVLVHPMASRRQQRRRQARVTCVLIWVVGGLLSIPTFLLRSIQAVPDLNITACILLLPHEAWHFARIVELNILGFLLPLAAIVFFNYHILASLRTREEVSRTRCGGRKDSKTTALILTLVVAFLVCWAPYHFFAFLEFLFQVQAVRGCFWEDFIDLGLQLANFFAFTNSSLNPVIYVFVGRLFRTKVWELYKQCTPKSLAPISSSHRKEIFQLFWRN
Assay: Calcium flux assay (FLIPR), CHO-K1 cells expressing human Bradykinin B1 receptor, absence of 0.1% BSA (hB1 free IC50)
Assay type: cell-based
Conditions: absence of 0.1% BSA in assay buffer
Procedure: The potency to inhibit the Bradykinin B1 receptor was determined for the Compound Examples of this invention in a cell-based fluorescent calcium-mobilisation assay. The assay measures the ability of Compound Examples to inhibit Bradykinin B1 receptor agonist-induced increase of intracellular free Ca^2+ in the cell line expressing Bradykinin B1 receptor. Specifically, calcium indicator-loaded cells are pre-incubated in the absence or presence of different concentrations of Compound Examples followed by the stimulation with a selective Bradykinin B1 receptor agonist peptide. The change of the intracellular Ca^2+ concentration is monitored with a fluorescent plate reader FLIPR^TETRA® (Molecular Devices).
Calcium Flux Assays (FLIPR) with Cells Expressing Human Bradykinin B1 Receptor (hB1)
CHO-K1 cell line expressing human Bradykinin B1 receptor is purchased from Euroscreen (Gosselies, Belgium, with reference name hB1-D1). The cells are grown in Nutrient Mixture Ham's F12 (Sigma) containing 10% Foetal bovine serum (Sigma) and 400 μg/mL G418 (Sigma), 5 μg/mL puromycin (Sigma).
The effect of BSA on the potency of endothelin receptor antagonists have been described in the prior art (Wu-Wong, J. R. et al. (1997), JPET 281: 791-798). The teaching can be applied in analogy to testing the potency of Bradykinin B1 receptor antagonist in the FLIPR assays.
For the calcium flux assay, 80% confluent cells are detached from the culture vessels with Versene (Gibco), and seeded into 384-well plates (Cell binding Surface; Corning, NY; #3683) at a density of 15,000 cells per well. Cells are seeded in a volume of 50 μL in medium without antibiotics and incubated overnight in a humidified atmosphere with 5% CO2 at 37° C. […] The calcium indicator loaded cells are incubated at 37° C. for 2 hrs. Extracellular dye is then removed and each well is filled with 45 μL of assay buffer. Cell plates are kept in dark until used. Compound examples are assayed at 8 concentrations in triplicate. Serial 10-fold dilutions in 100% DMSO are made at a 100-times higher concentration than the final concentration, and then diluted 1:10 in assay buffer. 5 μL of each diluted compound is added to the well of cell plates (yielding final concentration with 1% DMSO), and incubated for 30 min at 28° C. before the addition of Bradykinin B1 receptor agonist on the FLIPR instrument.
The addition of agonist 20 μl per well to the assay plate is carried out on the FLIPR instrument while continuously monitoring Ca2+-dependent fluorescence at 538 nm. A peptide antagonist Lys-(Des-Arg-Leu)-Bradykinin (Bachem, Brackley) at 20 µM is used to determine the full inhibition as control.
Peak fluorescence is used to determine the response to agonist obtained at each concentration of Compound Examples by the following equation: % Response=100*(RFU(compound)−RFU(control))/(RFU(DMSO)−RFU(control))
RFU means relative fluorescence units.
Control means full inhibition by the peptide antagonist Lys-(Des-Arg-Leu)-Bradykinin at 20 µM.
The response values are plotted against the logarithm of the compound concentrations. The Compound Examples are tested in triplicates per plate and mean values are plotted in Excel XLfit to determine IC50 values, percentage of maximal inhibition and the Hill slopes.

SMILES	IC50
O=C(O)c1cc(NC(=O)C2(c3cc(F)cc(Cl)c3)CC2)ccc1-c1cnn(C2CCC2)c1 [Example 57, 5-({[1-(3-Chloro-5-fluorophenyl)cyclopropyl]carbonyl}amino)-2-(1-cyclobutyl-1H-pyrazol-4-yl)benzoic acid]	840 nM
O=C(O)c1cc(NC(=O)C2(c3ccc(Cl)cn3)CC2)ccc1-c1cnn(C2CCC2)c1 [Example 58, 5-({[1-(5-Chloropyridin-2-yl)cyclopropyl]carbonyl}amino)-2-(1-cyclobutyl-1H-pyrazol-4-yl)benzoic acid]	360 nM
O=C(O)c1cc(NC(=O)C2(c3c(F)cccc3F)CC2)ccc1-c1cnn(C2CCC2)c1 [Example 59, 2-(1-Cyclobutyl-1H-pyrazol-4-yl)-5-({[1-(2,6-difluorophenyl)cyclopropyl]carbonyl}amino)benzoic acid]	1100 nM
O=C(O)c1cc(NC(=O)C2(c3ccc(F)cc3Cl)CC2)ccc1-c1cnn(C2CCC2)c1 [Example 61, 5-({[1-(2-Chloro-4-fluorophenyl)cyclopropyl]carbonyl}amino)-2-(1-cyclobutyl-1H-pyrazol-4-yl)benzoic acid]	200 nM
O=C(O)c1cc(NC(=O)C2(c3c(F)cccc3Cl)CC2)ccc1-c1cnn(C2CCC2)c1 [Example 62, 5-({[1-(2-Chloro-6-fluorophenyl)cyclopropyl]carbonyl}amino)-2-(1-cyclobutyl-1H-pyrazol-4-yl)benzoic acid]	89 nM
COc1ccc(F)c(C2(C(=O)Nc3ccc(-c4cnn(C5CCC5)c4)c(C(=O)O)c3)CC2)c1 [Example 63, 2-(1-Cyclobutyl-1H-pyrazol-4-yl)-5-({[1-(2-fluoro-5-methoxyphenyl)cyclopropyl]carbonyl}amino)benzoic acid]	3000 nM
CC1(C)CC1(C(=O)Nc1ccc(-c2cnn(C3CCC3)c2)c(C(=O)O)c1)c1ccccc1F (stereo not drawn) [Example 64, 2-(1-Cyclobutyl-1H-pyrazol-4-yl)-5-({[1-(2-fluorophenyl)-2,2-dimethylcyclopropyl]carbonyl}amino)benzoic acid]	1300 nM
O=C(O)c1cc(NC(=O)C2(c3ccc(OC(F)(F)F)cc3F)CC2)ccc1-n1cc(C(F)(F)F)cn1 [Example 65, 5-[({1-[2-Fluoro-4-(trifluoromethoxy)phenyl]cyclopropyl}carbonyl)amino]-2-[4-(trifluoromethyl)-1H-pyrazol-1-yl]benzoic acid]	2600 nM
CC(C)(C)c1ccn(-c2ccc(NC(=O)C3(c4ccc(OC(F)(F)F)cc4F)CC3)cc2C(=O)O)n1 [Example 66, 2-(3-tert-Butyl-1H-pyrazol-1-yl)-5-[({1-[2-fluoro-4-(trifluoromethoxy)phenyl]cyclopropyl}carbonyl)amino]benzoic acid]	2100 nM
O=C(O)c1cc(NC(=O)C2(c3ccc(OC(F)(F)F)cc3)CC2)ccc1-c1cnn(C2CCC2)c1 [Example 78, 2-(1-Cyclobutyl-1H-pyrazol-4-yl)-5-[({1-[4-(trifluoromethoxy)phenyl]cyclopropyl}carbonyl)amino]benzoic acid]	300 nM
Cc1ccc(C2(C(=O)Nc3ccc(-c4cnn(C5CCC5)c4)c(C(=O)O)c3)CC2)c(F)c1 [Example 80, 2-(1-Cyclobutyl-1H-pyrazol-4-yl)-5-({[1-(2-fluoro-4-methylphenyl)cyclopropyl]carbonyl}amino)benzoic acid]	120 nM
Cc1ccc(C2(C(=O)Nc3ccc(-c4cnn(C5CCC5)c4)c(C(=O)O)c3)CC2)cc1F [Example 81, 2-(1-Cyclobutyl-1H-pyrazol-4-yl)-5-({[1-(3-fluoro-4-methylphenyl)cyclopropyl]carbonyl}amino)benzoic acid]	680 nM
O=C(O)c1cc(NC(=O)C2(c3ccc(F)cn3)CC2)ccc1-c1cnn(C2CCC2)c1 [Example 82, 2-(1-Cyclobutyl-1H-pyrazol-4-yl)-5-({[1-(5-fluoropyridin-2-yl)cyclopropyl]carbonyl}amino)benzoic acid]	2500 nM
O=C(O)c1cc(NC(=O)C2(c3ccc(C(F)(F)F)cc3F)CC2)ccc1-c1cnn([C@@H]2CCOC2)c1 [Example 83, 5-[({1-[2-Fluoro-4-(trifluoromethyl)phenyl]cyclopropyl}carbonyl)amino]-2-{1-[(3R)-tetrahydrofuran-3-yl]-1H-pyrazol-4-yl}benzoic acid]	560 nM
O=C(O)c1cc(NC(=O)C2(c3ccc(C(F)(F)F)cc3F)CC2)ccc1-c1cnn([C@H]2CCOC2)c1 [Example 84, 5-[({1-[2-Fluoro-4-(trifluoromethyl)phenyl]cyclopropyl}carbonyl)amino]-2-{1-[(3S)-tetrahydrofuran-3-yl]-1H-pyrazol-4-yl}benzoic acid]	570 nM
CC(C)n1cc(-c2c(F)cc(NC(=O)C3(c4ccc(C(F)(F)F)cc4)CC3)cc2C(=O)O)cn1 [Example 85, 3-Fluoro-2-[1-(propan-2-yl)-1H-pyrazol-4-yl]-5-[({1-[4-(trifluoromethyl)phenyl]cyclopropyl}carbonyl)amino]benzoic acid]	71 nM

Other lines, results leading:

IC50	SMILES
62 nM	O=C(O)c1cc(NC(=O)C2(c3cc(C(F)(F)F)ccc3F)CC2)ccc1-c1cnn(C2CCC2)c1 [Example 60, 2-(1-Cyclobutyl-1H-pyrazol-4-yl)-5-[({1-[2-fluoro-5-(trifluoromethyl)phenyl]cyclopropyl}carbonyl)amino]benzoic acid]
36 nM	CCn1cc(-c2ccc(NC(=O)C3(c4ccc(C(F)(F)F)cc4F)CC3)cc2C(=O)O)cn1 [Example 68, 2-(1-Ethyl-1H-pyrazol-4-yl)-5-[({1-[2-fluoro-4-(trifluoromethyl)phenyl]cyclopropyl}carbonyl)amino]benzoic acid]
28 nM	CCn1cc(-c2ccc(NC(=O)C3(c4ccc(OC(F)(F)F)cc4F)CC3)cc2C(=O)O)cn1 [Example 69, 2-(1-Ethyl-1H-pyrazol-4-yl)-5-[({1-[2-fluoro-4-(trifluoromethoxy)phenyl]cyclopropyl}carbonyl)amino]benzoic acid]
28 nM	CC(C)(C)n1cc(-c2ccc(NC(=O)C3(c4ccc(C(F)(F)F)cc4F)CC3)cc2C(=O)O)cn1 [Example 72, 2-(1-tert-Butyl-1H-pyrazol-4-yl)-5-[({1-[2-fluoro-4-(trifluoromethyl)phenyl]cyclopropyl}carbonyl)amino]benzoic acid]
11 nM	CC(C)(C)Cn1cc(-c2ccc(NC(=O)C3(c4ccc(C(F)(F)F)cc4F)CC3)cc2C(=O)O)cn1 [Example 76, 2-[1-(2,2-Dimethylpropyl)-1H-pyrazol-4-yl]-5-[({1-[2-fluoro-4-(trifluoromethyl)phenyl]cyclopropyl}carbonyl)amino]benzoic acid]
60 nM	O=C(O)c1cc(NC(=O)C2(c3ccc(C(F)(F)F)c(F)c3)CC2)ccc1-c1cnn(C2CCC2)c1 [Example 79, 2-(1-Cyclobutyl-1H-pyrazol-4-yl)-5-[({1-[3-fluoro-4-(trifluoromethyl)phenyl]cyclopropyl}carbonyl)amino]benzoic acid]
69 nM	CC(C)n1cc(-c2c(F)cc(NC(=O)C3(c4ccc(OC(F)(F)F)cc4)CC3)cc2C(=O)O)cn1 [Example 86, 3-Fluoro-2-[1-(propan-2-yl)-1H-pyrazol-4-yl]-5-[({1-[4-(trifluoromethoxy)phenyl]cyclopropyl}carbonyl)amino]benzoic acid]
38 nM	Cc1ccc(C2(C(=O)Nc3cc(F)c(-c4cnn(C(C)C)c4)c(C(=O)O)c3)CC2)c(F)c1 [Example 87, 3-Fluoro-5-({[1-(2-fluoro-4-methylphenyl)cyclopropyl]carbonyl}amino)-2-[1-(propan-2-yl)-1H-pyrazol-4-yl]benzoic acid]
